Among the data in patent publication EP0319906A2, “Novel quinoline derivatives, processes for preparation thereof and antibacterial agent containing them” (Dainippon Pharmaceutical Co., Ltd., priority 1987, dated 1989) are LD50 and MIC values, retold here.

The structures appear in SMILES notation. ≈ marks a conversion by molar mass, not a printed value. Where two headings read alike, the source gives them in different places. A value given as a limit tells only on which side of the number the result lay.

One data set is described as follows: in vivo. Particulars: mouse, po. The protocol: A suspension containing each of compounds of this invention in various concentrations was orally given to male mice (ddY) at a dose of 0.1 ml per 10 g of body weight. The number of dead mice was counted after 7 days, and the value of median lethal dose (LD₅₀, mg/kg) was calculated in accordance with the Behrens-Kaerber method.

The next data set relates to S. marcescens S-9. The data set can be described thus: In vitro antibacterial activity, twofold agar-dilution MIC. Format: cell-based. Particulars: Serratia marcescens, S9; S. marcescens S-9; Mueller-Hinton agar, 20-hour incubation at 37 °C; calculated for free base; read-out: minimum inhibitory concentrations (MIC). The method, then: (§1) The figures in the table show minimum inhibitory concentrations (MIC) (µg/ml), calculated for free base. […] One loopful of an overnight culture of test organisms in Mueller-Hinton broth was inoculated onto 10 ml drug- containing agar layers in petri dishes. Bacterial inocula contained approximately 10⁶ colonyl-forming units. […] The MIC was defined as the lowest drug concentration which prevented visible bacterial growth.

The subject of the next data set is S. aureus No. 80. The data set is described as above. The class given is cell-based. Particulars: Staphylococcus aureus; S. aureus No. 80; Mueller-Hinton agar, 20-hour incubation at 37 °C; calculated for free base; read-out: minimum inhibitory concentrations (MIC). The protocol:
as §1

In another data set the test system is S. aureus Terajima. The description is as above. Format: cell-based. Particulars: Staphylococcus aureus; S. aureus Terajima; Mueller-Hinton agar, 20-hour incubation at 37 °C; calculated for free base; read-out: minimum inhibitory concentrations (MIC). The protocol: as §1
In another data set the test system is S. pyogenes A65. The data set is described as above. Format: cell-based. The following applies: Streptococcus pyogenes; S. pyogenes A65; Mueller-Hinton agar, 20-hour incubation at 37 °C; calculated for free base; read-out: minimum inhibitory concentrations (MIC). The method, then: as §1
The subject of a further data set is P. aeruginosa 12. The data set is described as above. Format: cell-based. The following applies: Pseudomonas aeruginosa; P. aeruginosa 12; Mueller-Hinton agar, 20-hour incubation at 37 °C; calculated for free base; read-out: minimum inhibitory concentrations (MIC). The method, then:
as §1

A further data set has as its system S. aureus 209 JC-1. Described as above. Format: cell-based. The following applies: Staphylococcus aureus, 209JC1; S. aureus 209 JC-1; Mueller-Hinton agar, 20-hour incubation at 37 °C; calculated for free base; read-out: minimum inhibitory concentrations (MIC). The protocol:
as §1

The subject of another data set is S. epidermidis No. 8. Described as above. The class given is cell-based. The following applies: Staphylococcus epidermidis; S. epidermidis No. 8; Mueller-Hinton agar, 20-hour incubation at 37 °C; calculated for free base; read-out: minimum inhibitory concentrations (MIC). The method, then:
as §1

The test system of the next data set is E. coli NIHJ JC-2. Described as above. Format: cell-based. Particulars: Escherichia coli, NIHJJC2; E. coli NIHJ JC-2; Mueller-Hinton agar, 20-hour incubation at 37 °C; calculated for free base; read-out: minimum inhibitory concentrations (MIC). The method, then: as §1
The test system of a further data set is E. coli P-5101. Described as above. The class given is cell-based. The following applies: Escherichia coli, P5101; E. coli P-5101; Mueller-Hinton agar, 20-hour incubation at 37 °C; calculated for free base; read-out: minimum inhibitory concentrations (MIC). The method, then:
as §1

Data set [1] deals with C. Trachomatics G/ur 1317. Put plainly: Antichlamydia activity, MIC in McCoy cells (inclusion bodies). Format: cell-based. The following applies: C. Trachomatics G/ur 1317; McCoy cells, 36 °C for 40-48 hours; calculated for free base; read-out: minimum inhibitory concentrations (MIC). The method, then:
(§2) The figures in the table show minimum inhibitory concentrations (MIC), (μg/ml), calculated for free base. Minimum inhibitory concentrations (MIC) were determined as follows. […] The cells were trypsinized and suspended in the same culture medium at a cell concentration of 1-2 x 10^5 cells/ml. One ml of the cell suspension was pipetted into flat-bottomed plastic tubes (14 mm in diameter) containing a cover slip (12 mm in diameter). The tubes were incubated in 5 % CO2-air at 36 °C for 20 hours. One-half ml of a chlamydial suspension (ca. 1-4 x 103 inclusion body forming units) was added into each tube, which was then centrifuged at 1500 x g for 60 minutes. The tubes were incubated for 1 hour at 36 °C. […] After further incubation at 36 °C for 40-48 hours, the cells on the cover glasses were stained with the Giemsa's solution. […] The MIC was defined as the lowest drug concentration where there were no inclusion bodies in all the cells on the cover slip.

In data set [2] the test system is C. Trachomatics G/ur 1242. The data set is described as above. The class given is cell-based. Particulars: C. Trachomatics G/ur 1242; McCoy cells, 36 °C for 40-48 hours; calculated for free base; read-out: minimum inhibitory concentrations (MIC). The protocol: as §2
A further data set relates to C. Trachomatics G/ur 931. The description is as above. The class given is cell-based. The following applies: C. Trachomatics G/ur 931; McCoy cells, 36 °C for 40-48 hours; calculated for free base; read-out: minimum inhibitory concentrations (MIC). The protocol:
as §2

For data set [3], the system named is C. Trachomatics G/ur 1448. Described as above. The following applies: C. Trachomatics G/ur 1448; McCoy cells, 36 °C for 40-48 hours; calculated for free base; read-out: minimum inhibitory concentrations (MIC). Format: cell-based. The method, then:
as §2

The mark [4] stands for this setting: orally given to male mice (ddY), dead mice counted after 7 days, Behrens-Kaerber method, read-out: LD₅₀.

`Cc1c(F)c(N2CCNCC2)c(F)c2c1c(=O)c(C(=O)O)cn2C1CC1` [Compound 2, 1-cyclopropyl-6,8--difluoro-5-methyl-7-(1-piperazinyl)-1,4-dihydro-4-oxoquinoline-3-carboxylic acid]: in the data set “in vivo” (setting [4]), the LD50 at 168 h was over 2000 mg/kg. Moreover, the MIC in the data set on S. marcescens S-9 is 0.1 µg/mL (≈ 0.275 µM); in the data set with S. aureus No. 80, 0.0125 µg/mL (≈ 0.0344 µM); in the data set with S. aureus Terajima, 0.025 µg/mL (≈ 0.0688 µM); with S. pyogenes A65, 0.39 µg/mL (≈ 1.07 µM); in the data set on P. aeruginosa 12 it was 0.2 µg/mL (≈ 0.55 µM); in the data set with S. aureus 209 JC-1, 0.025 µg/mL (≈ 0.0688 µM). Besides, the MIC in the data set with S. epidermidis No. 8 is 0.025 µg/mL (≈ 0.0688 µM); in the data set with E. coli NIHJ JC-2, 0.0063 µg/mL (≈ 0.0173 µM); with E. coli P-5101, 0.0063 µg/mL (≈ 0.0173 µM); in [1], 0.1 µg/mL (≈ 0.275 µM); in data set [2], 0.1 µg/mL (≈ 0.275 µM); in the data set with C. Trachomatics G/ur 931, 0.05 µg/mL (≈ 0.138 µM). Also, the MIC in data set [3] was 0.1 µg/mL (≈ 0.275 µM).
With `Cc1c(F)c(N2CCC(N)C2)c(F)c2c1c(=O)c(C(=O)O)cn2C1CC1` (centres unmarked) [Compound 3, 7-(3-amino-1-pyrrolidinyl)-1-cyclopropyl-6,8-difluoro-5-methyl-1,4-dihydro-4-oxoquinoline-3-carboxylic acid], the LD50 at 7 days in the data set “in vivo” (male, ddY) was over 2000 mg/kg. The MIC in the data set with S. marcescens S-9 is 0.05 µg/mL (≈ 0.138 µM); with S. aureus No. 80 it was 0.0125 µg/mL (≈ 0.0344 µM); in the data set on S. aureus Terajima it was 0.0125 µg/mL (≈ 0.0344 µM); in the data set on S. pyogenes A65, 0.2 µg/mL (≈ 0.55 µM); with P. aeruginosa 12, 0.2 µg/mL (≈ 0.55 µM); with S. aureus 209 JC-1, 0.0125 µg/mL (≈ 0.0344 µM). For the same compound, the MIC in the data set on S. epidermidis No. 8 was 0.0125 µg/mL (≈ 0.0344 µM); with E. coli NIHJ JC-2 it was 0.0125 µg/mL (≈ 0.0344 µM); in the data set with E. coli P-5101 it was 0.0125 µg/mL (≈ 0.0344 µM); in data set [1] it was 0.013 µg/mL (≈ 0.0358 µM); in [2], 0.013 µg/mL (≈ 0.0358 µM); with C. Trachomatics G/ur 931 it was 0.013 µg/mL (≈ 0.0358 µM). The MIC in data set [3] is 0.013 µg/mL (≈ 0.0358 µM).
On to `Cc1c(F)c(N2C[C@@H](C)N[C@@H](C)C2)cc2c1c(=O)c(C(=O)O)cn2C1CC1` [Compound 4, 1-cyclopropyl-6-fluoro-5-methyl-7-(cis-3,5-dimethyl-1-piperazinyl)-1,4-dihydro-4-oxoquinoline-3-carboxylic acid], for which the LD50 at 7 days in the data set “in vivo” (male, ddY) is over 2000 mg/kg. Besides, the MIC in the data set with S. marcescens S-9 was 0.39 µg/mL (≈ 1.04 µM); with S. aureus No. 80, 0.05 µg/mL (≈ 0.134 µM); in the data set with S. aureus Terajima, 0.025 µg/mL (≈ 0.0669 µM); in the data set on S. pyogenes A65 it was 0.1 µg/mL (≈ 0.268 µM); with P. aeruginosa 12, 0.2 µg/mL (≈ 0.536 µM); in the data set on S. aureus 209 JC-1, 0.025 µg/mL (≈ 0.0669 µM). In addition, the MIC was 0.05 µg/mL (≈ 0.134 µM) in the data set on S. epidermidis No. 8, 0.0125 µg/mL (≈ 0.0335 µM) in the data set with E. coli NIHJ JC-2 and 0.025 µg/mL (≈ 0.0669 µM) in the data set with E. coli P-5101.
In the case of `Cc1c(F)c(N2CCNCC2)cc2c1c(=O)c(C(=O)O)cn2C1CC1` [Compound 5, 1-cyclopropyl-6-fluoro-5-methyl-7-(1-piperazinyl)-1,4-dihydro-4-oxoquinoline-3-carboxylic acid], the LD50 at 7 days in “in vivo” (setting [4]) was over 2000 mg/kg. The MIC was 0.2 µg/mL (≈ 0.579 µM) with S. marcescens S-9; 0.0125 µg/mL (≈ 0.0362 µM) in the data set on S. aureus No. 80; 0.025 µg/mL (≈ 0.0724 µM) in the data set with S. aureus Terajima; 0.39 µg/mL (≈ 1.13 µM) in the data set on S. pyogenes A65; 0.1 µg/mL (≈ 0.29 µM) with P. aeruginosa 12; 0.05 µg/mL (≈ 0.145 µM) in the data set with S. aureus 209 JC-1. Also, the figures for the MIC in the data set with S. epidermidis No. 8, with E. coli NIHJ JC-2 and with E. coli P-5101 were 0.025 µg/mL (≈ 0.0724 µM), 0.0125 µg/mL (≈ 0.0362 µM) and 0.0125 µg/mL (≈ 0.0362 µM), respectively.
Take `O=C(O)c1cn(C2CC2)c2c(F)c(N3CCNCC3)c(F)cc2c1=O` [Compound B, 1-cyclopropyl-6,8-difluoro-7-(1-piperazinyl)-1,4-dihydro-4-oxoquinoline-3-carboxylic acid, reference compound]: the MIC in the data set with S. marcescens S-9 is 0.05 µg/mL (≈ 0.143 µM); in the data set with S. aureus No. 80 it was 0.2 µg/mL (≈ 0.573 µM); in the data set with S. aureus Terajima, 0.1 µg/mL (≈ 0.286 µM); with S. pyogenes A65 it was 0.39 µg/mL (≈ 1.12 µM); in the data set with P. aeruginosa 12, 0.1 µg/mL (≈ 0.286 µM); in the data set on S. aureus 209 JC-1 it was 0.1 µg/mL (≈ 0.286 µM). The MIC with S. epidermidis No. 8 is 0.1 µg/mL (≈ 0.286 µM); in the data set on E. coli NIHJ JC-2, 0.0063 µg/mL (≈ 0.018 µM); in the data set on E. coli P-5101, 0.0063 µg/mL (≈ 0.018 µM); in data set [1] it was 0.39 µg/mL (≈ 1.12 µM); in data set [2] it was 0.39 µg/mL (≈ 1.12 µM); in the data set on C. Trachomatics G/ur 931 it was 0.39 µg/mL (≈ 1.12 µM). The MIC in data set [3] is 0.39 µg/mL (≈ 1.12 µM).
`Cc1c(F)c(N2CCNCC2)c(C#N)c2c1c(=O)c(C(=O)O)cn2C1CC1` [Compound D, 8-cyano-1-cyclopropyl-6-fluoro-5-methyl-7-(1-piperazinyl)-1,4-dihydro-4-oxoquinoline-3-carboxylic acid, reference compound]: the MIC with S. marcescens S-9 was 0.39 µg/mL (≈ 1.05 µM); in the data set on S. aureus No. 80, 0.1 µg/mL (≈ 0.27 µM); with S. aureus Terajima, 0.1 µg/mL (≈ 0.27 µM); with S. pyogenes A65, 1.56 µg/mL (≈ 4.21 µM); in the data set on P. aeruginosa 12, 0.39 µg/mL (≈ 1.05 µM); in the data set on S. aureus 209 JC-1 it was 0.1 µg/mL (≈ 0.27 µM). Besides, the MIC with S. epidermidis No. 8 is 0.1 µg/mL (≈ 0.27 µM); with E. coli NIHJ JC-2, 0.0125 µg/mL (≈ 0.0337 µM); in the data set on E. coli P-5101 it was 0.0125 µg/mL (≈ 0.0337 µM); in [1] it was 3.13 µg/mL (≈ 8.45 µM); in data set [2], 3.13 µg/mL (≈ 8.45 µM); in the data set on C. Trachomatics G/ur 931, 1.56 µg/mL (≈ 4.21 µM). Also, in data set [3], the MIC was 3.13 µg/mL (≈ 8.45 µM).
